Laboratory results reported in patent US20260356879A1, “CELASTROL DERIVATIVES” (Celloram Inc., priority 2022, published 2026).
Entries after “also recorded” stand apart in the source; their conditions may differ. Read-outs that look alike come from different tables or passages of the source.

Columns and labels:
TNF-α secretion = TNF-α secretion in THP-1 macrophages, LPS + Nigericin; assay type: cell-based; settings: human THP-1 macrophages, FIG. 5D
Description: This example illustrates a comparative study of CLM-022 and MCC950 in inhibiting NLRP3 inflammasome activity in mouse and human macrophages.
To confirm the inhibitory effect of CLM-022 in human macrophages, THP-1 cells, a human leukemia monocytic cell line, were differentiated into macrophages using phorbol 12-myristate-13-acetate (PMA, 100 ng/ml) treatment for one day. The THP-1 macrophages were then treated with LPS (100 ng/ml) for 3 hours to induce the expression of inflammatory genes. Subsequently, the THP-1 cells were treated with CLM-022 or MCC950 in a dose range of 0-10 μM for 30 minutes. Then, to fully activate NLRP3-dependent inflammasome activity, Nigericin (10 μM) was added to the THP-1 cells for an additional 60 min.

NF-kB = NF-kB luciferase reporter assay (HepG2 NF-kB-Luc reporter cells, IL-1β stimulated); assay type: cell-based, human; settings: for IC50: Homo sapiens
Description: HepG2 NF-kB-Luc reporter cells stimulated with IL-1β (20 ng/ml) and the relative NF-kB luciferase activity (RLU) was determined for each of celastrol (compound 1) and each of the exemplary derivative compounds at the following eight point concentrations: 10 μM, 5 μM, 2.5 μM, 1.25 μM, 0.63 μM, 0.31 μM, 0.16 μM, 0.016 μM, and 0 μM). Assay values were plotted (not shown) and IC50 inhibitory concentrations were calculated after normalization using Prizm 9.0 software.
This example illustrates a study of the anti-inflammatory potential of an exemplary celastrol derivative of the present disclosure (compound 22) using an NF-κB luciferase promoter reporter gene assay in the human liver cancer cell line, HepG2.
NF-kB luciferase reporter assay: The celastrol derivative, compound 22 (prepared as described in Example 13) and the parent molecule, compound 1 (celastrol), were freshly dissolved in DMSO. HepG2 NF-κB reporter cells were seeded (2.5×10^4/well) in 96-well plate and then pre-treated with either compound 22 or compound 1 at the 8-point concentrations of 10, 5, 2.5, 1.25, 0.63, 0.31, 0.16, 0.016, or 0 μM, respectively, and the NF-κB promoter was activated by adding IL-1β (20 ng/ml) to the cells. After 18 hours, the cells were harvested by adding the 1× passive cell lysis buffer (Promega) and followed by measurement of the relative NF-kB luciferase activity (RLU) using GloMax discover microplate reader (Promega). Inhibitory concentrations (IC50) after normalization using Prizm 9.0 software.

NLRP3 = biological target: T1, NLRP3 (Homo sapiens, UniProt Q96P20); test: DARTS assay: protection of NLRP3 from Pronase degradation in THP-1 lysates; assay type: binding; settings: 10 μM, Pronase (50-500 ng/μg of protein), FIG. 6A, 6B
T1 construct: DARTS with Pronase, NACHT and PYD antibodies
T1 sequence (Q96P20 whole entry): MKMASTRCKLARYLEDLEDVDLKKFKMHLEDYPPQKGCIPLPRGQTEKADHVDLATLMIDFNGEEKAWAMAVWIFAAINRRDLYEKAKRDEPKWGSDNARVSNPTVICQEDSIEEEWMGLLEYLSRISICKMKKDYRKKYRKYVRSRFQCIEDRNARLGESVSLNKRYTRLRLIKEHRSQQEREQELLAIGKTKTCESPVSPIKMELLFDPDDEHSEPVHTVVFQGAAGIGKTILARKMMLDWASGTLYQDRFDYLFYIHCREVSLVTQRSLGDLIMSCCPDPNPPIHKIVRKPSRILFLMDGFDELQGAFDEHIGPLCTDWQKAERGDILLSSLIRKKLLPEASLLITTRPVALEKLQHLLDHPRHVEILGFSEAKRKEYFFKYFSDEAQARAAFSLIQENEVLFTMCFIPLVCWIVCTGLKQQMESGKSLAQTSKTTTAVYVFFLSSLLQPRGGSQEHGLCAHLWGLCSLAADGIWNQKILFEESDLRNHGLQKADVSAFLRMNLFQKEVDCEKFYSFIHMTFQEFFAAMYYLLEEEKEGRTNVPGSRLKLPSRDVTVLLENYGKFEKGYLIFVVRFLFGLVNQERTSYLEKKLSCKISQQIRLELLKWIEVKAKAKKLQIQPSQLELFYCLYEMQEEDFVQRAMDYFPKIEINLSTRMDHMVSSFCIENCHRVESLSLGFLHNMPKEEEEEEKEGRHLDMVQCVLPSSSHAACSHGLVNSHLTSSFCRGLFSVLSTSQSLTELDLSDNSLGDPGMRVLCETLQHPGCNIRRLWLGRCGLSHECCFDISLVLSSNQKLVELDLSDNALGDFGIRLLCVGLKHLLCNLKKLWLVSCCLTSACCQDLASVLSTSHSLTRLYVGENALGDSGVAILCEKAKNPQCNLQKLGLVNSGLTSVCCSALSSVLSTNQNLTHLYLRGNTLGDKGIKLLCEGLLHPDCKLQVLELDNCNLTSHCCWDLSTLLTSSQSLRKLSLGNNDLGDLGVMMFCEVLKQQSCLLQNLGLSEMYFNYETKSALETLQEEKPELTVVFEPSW
From the text: (§1) The NLRP3 inflammasome is composed of a multi-protein complex and the exact molecular mode of NLRP3 activation remains unclear. Currently, there are no NLRP3 inflammasome inhibitors in the clinic, and it is important to identify the mechanism of action and molecular target of potential small molecules that interact with NLRP3. This example illustrates a study of the ability of CLM-022 to protect the NLRP3 molecule as determined using a drug affinity responsive target stability (DARTS) assay. DARTS assay is a robust method to identify small molecule target protein. In case of a drug-target interaction, the small molecule protects target protein from degradation by proteinase (Pronase) whereas free-proteins may be degraded very efficiently in the given condition.
(§2) The DARTS assay was performed using THP-1 lysates pretreated with LPS and Nigericin to induce activation of NLRP3 inflammasome. THP-1 cells (1×10^5/mL) were treated with LPS (100 ng/ml) for 3 hours, followed by 10 μM Nigericin for an additional 30 minutes. Pronase (50-500 ng/μg of protein) was added to the lysate with CLM-022 (10 μM) or MCC950 (10 μM) for the indicated time (10-15 min) at room temperature. The protein components of NLRP3 inflammasome were visualized using antibody recognizing NLRP3-Natch domain (FIG. 6A), NLRP-PYD domain (FIG. 6B), or NEK7 protein (FIG. 6C). […]

[1] = tested on: NF-kB target proteins iNOS, COX2, NLRP3, and IL-1β; test: LPS-induced NF-kB target protein expression in BMDCs (western blot); assay type: cell-based; settings: BMDCs, 10, 25, 50 nM, LPS (500 ng/ml), FIG. 1C
Description: FIG. 1A depicts plots of relative NF-κB luciferase activity (RLU) for compound 22 and compound 1 (also referred to as “CLM-001”) assayed at 8-point concentrations (10 μM, 5 μM, […], 1.25 μM, 0.63 μM, 0.31 μM, 0.16 μM, […], and 0 μM). FIG. 1B depicts plots of the inhibitory concentrations (IC50) for compounds 22 (CLM-022) and 1 (CLM-001).
LPS-induced NF-kB target protein expression: Bone marrow-derived dendritic cells (BMDCs) were pre-treated with compound 22 or compound 1 at three concentrations (10 nM, 25 nM, 50 nM) for an hour and then treated overnight with LPS (500 ng/ml). The next day, the cells were subjected to western blotting for iNOS, COX2, NLRP3, and IL-1β.

NEK7 = biological target: T2, NEK7 (Homo sapiens, UniProt Q8TDX7); test: DARTS assay: protection of NEK7 from Pronase degradation in THP-1 lysates; assay type: binding; settings: 10 μM, FIG. 6C
T2 construct: DARTS with Pronase, immunoblot
T2 sequence (Q8TDX7 whole entry): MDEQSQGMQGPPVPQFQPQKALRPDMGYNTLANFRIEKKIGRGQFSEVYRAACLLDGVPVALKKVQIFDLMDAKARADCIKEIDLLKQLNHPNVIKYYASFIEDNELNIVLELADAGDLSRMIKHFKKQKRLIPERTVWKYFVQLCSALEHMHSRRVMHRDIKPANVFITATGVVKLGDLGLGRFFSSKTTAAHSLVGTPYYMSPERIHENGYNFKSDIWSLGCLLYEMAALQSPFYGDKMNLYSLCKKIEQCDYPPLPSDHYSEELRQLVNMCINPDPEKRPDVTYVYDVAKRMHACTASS
From the text: as §1, §2

IC50 (NF-kB; HepG2 NF-kB-Luc reporter cells, IL-1β (20 ng/ml), Example 13, read-out: NF-kB IC50): 268 nM | % IC50 relative to Celastrol (NF-kB; relative to celastrol (compound 1)): 51% | IC50 lower than that of compound 1 by (NF-kB; vs compound 1 (IC50=528 nM), Example 14): 50%
SMILES: CC1=C(O)C(=O)C=C2C1=CC=C1[C@@]2(C)CC[C@@]2(C)[C@@H]3C[C@](C)(N(C)C(=O)C(=O)N(C)C)CC[C@]3(C)CC[C@]12C [Compound 22, N′-[(2R,4aS,6aR,6aS,14aS,14bR)-10-hydroxy-2,4a,6a,6a,9,14a-hexamethyl-11-oxo-1,3,4,5,6,13,14,14b-octahydropicen-2-yl]-N,N,N′-trimethyl-oxamide]
inhibition of TNF-α secretion (TNF-α secretion): but not TNF-α | IC50 (NF-kB; HepG2, IL-1β (20 ng/ml), 18 hours, normalized, Example 14, FIG. 1B, read-out: IC50 for NF-κB promoter activity): 268 nM | inhibition of NF-kB inflammatory signaling (NF-kB; IL-1β-induced, HepG2, FIG. 1): robust inhibitory potential for IL-1β-induced NF-kB inflammatory signaling pathway superior to celastrol (compound 1) at low concentrations; also recorded: robustly inhibits NF-κB inflammatory signaling | protection of NLRP3 protein from Pronase-induced degradation (NLRP3): markedly improved protection of NLRP3 protein, but not NEK7, from Pronase-induced degradation | protection of NLRP3 protein from Pronase-induced degradation (NLRP3; listed as CLM-022): markedly protected NLRP3 protein from degradation which was obviously more efficient than that of MCC950 | expression of LPS-induced NF-kB target proteins iNOS, COX2, NLRP3, and IL-1β [1]: markedly inhibited expression of the LPS-induced NF-kB target proteins iNOS, COX2, NLRP3, and IL-1β in a dose-dependent fashion | protection of NEK7 from Pronase-induced degradation (NEK7): did not protect NEK7 from Pronase-induced degradation
